Columns and labels:
breast cancer cells = test system: breast cancer cells; set-up: method as in PMID 18425349; details: by modulating AP-1 and NF-κB signaling; cited from earlier work
[1] = In vivo pattern recognition of TEF: UPLC–MS metabolic profiling of blood after oral administration; set-up: species or system rats; details: for bioavailability (absorbed in systemic circulation) of TEF constituent: after oral administration of TEF to rats, in words; for Metabolites Pattern in TEF and Blood (Abundance): UPLC–MS abundance of mass
Procedure: For in vivo pattern recognition of TEF, it was orally administered to rats. After its oral administration, blood samples were collected at different time intervals. Prepared plasma samples of pharmacokinetic analysis (0.5, 1, 3, 6, 12, 24, 48, and 72 h) were used for this study. Samples were analyzed by ultra-performance liquid chromatography–mass spectrometry (UPLC–MS) analysis. The UPLC–MS was performed on Water’s ACQUITY UPLCTM system (Waters Corp., Milford, MA, USA) equipped with a binary solvent delivery system, an autosampler, column manager, and a tunable MS detector (Synapt; Waters, Manchester, UK). Chromatographic separation was performed on a Water’s ACQUITY UPLC^TM BEH C18 (100.0 × 2.1 mm × 1.7 μm) column. The mobile phase used for chromatographic separation was 0.05% (v/v) formic acid in water (A) and 0.05% (v/v) formic acid in acetonitrile (B). […] The flow rate of mobile phase was 0.5 mL/min, and column temperature was set at 25 °C throughout the run time. The mass spectrometry was performed on a quadrupole orthogonal acceleration time of flight tandem mass spectrometer (Waters Q-TOF, Manchester, UK). The nebulizer gas was set to 500 L/h, the cone gas was set to 50 L/h, and the source temperature was set to 100 °C. The capillary voltage was set to 3.0 kV, and the sample cone voltage was set to […]. Argon was employed as the collision gas at a pressure of 5.3 × 10^−5 Torr. The Q-TOF was operated in positive mode with […] and 0.02 s inter-scan delay. The accurate mass and composition for the precursor ions and the fragment ions were calculated by using MassLynx v 4.1 software incorporated with the instrument. Compounds were tentatively identified from database by comparing their reported m/z values with experimental values. Focus was given to the mass ranges from 130 to 600 m/z for lanosterol type triterpenoids and general terpene hydrocarbon. The databases used for identification of compounds were MassBank and HMDB.
Metabolomic comparison was performed with respect to analysis of TEF. For that, dried TEF was dissolved in LC–MS grade methanol and analyzed with same conditions used for plasma sample analysis. […] This metabolomic analysis was based on metabolites absorbed in blood after oral administration.

[2] = Pharmacokinetic analysis of TEF in terms of GA-H after oral administration to rats (HPLC of plasma and urine); assay type: in vivo, Albino Wistar rats; set-up: rate of elimination (Kel): unit not given here
Procedure: Alliance HPLC system (e2695 Separation module, Waters, Milford, MA, USA) with a gradient pump integrated with adjustable wavelength programmable photodiode array detector (PDA) was employed for analysis. Chromatographic separation was executed on Hupersil […] C18 (ODS) column (150 × 4.6 mm, Phenomenex, Torrance, CA, USA), using mobile phase composed of 0.5% v/v formic acid in water (A) and methanol (B). Solvents were eluted at a flow rate of 1.0 mL/min in gradient elution program (initially 100% A, 0–5 min 90% A, 5–10 min 70% A, 10–15 min 30% A, 15–20 min 2% A, and 20–22 min 100% A). Detection was carried out in a scanning mode with 3D channel at a wavelength of 254 nm. Total run time was 25 min. The identity of the compounds was established by comparing retention time of analytical standards. The proposed developed method was further validated as per the AOAC guidelines.
Albino Wistar rats (8 weeks old, 180 ± 20 g) were obtained from the Central Animal House Facility of Jamia Hamdard. Animal housing and handling were executed in accordance with the Good Laboratory Practice (GLP) mentioned in CPCSEA guidelines. All experimental protocols were reviewed and approved by the Institutional Animal Ethics Committee (Registration No 173/GO/RE/S/2000/CPCSEA; approval number 1472). All animals were housed in polypropylene cages (not more than three animals per cage) with proper water and feed and were allowed to acclimatize with specified conditions (25 ± 3 °C and 60 ± 5%RH) for a week before the experiment. […] After oral administration, blood samples were collected from retro-orbital plexus by using heparinized capillaries at 0 (pre-dose), 0.5, 1, 1.5, 2, 4, 6, 8, 10, 12, 16, 24, and 30 h. Blood samples were collected in EDTA tubes and centrifuged at 7000 rpm to get plasma. The separated plasma was stored at −60 °C until analysis. […] The collected urine from each animal was pooled for analysis.
Liquid–liquid extraction was used for extraction of GA-H from plasma. In 100 µL of plasma, 500 µL of ice-cold methanol was added, vortexed, and incubated at −60 °C for 8 h. After incubation, it was brought to room temperature and centrifuged at 10,000 rpm for 10 min. The supernatant was separated and dried by passing […]. The dried extract was re-suspended with 100 μL of LC–MS grade methanol, sonicated for 10 min, centrifuged at 14,000 rpm for 10 min, supernatant separated, and then transferred into sample vials having insert for analysis. Similar sample preparation protocol and storage conditions were used for urine through liquid–liquid extraction.
The maximum plasma concentration (Cmax) and time to attain maximum concentration (Tmax) were directly assessed by plasma concentration–time graph. Other pharmacokinetic parameters, such as AUC, AUC0–t, AUC0–∞, half-life (t1/2), elimination rate constant (Kel), and volume of distribution (Vd), were calculated from plasma concentration vs. time profile response curve by non-compartmental analysis, using software Pkf Excel plug-in program.

[3] = blood 3 h after oral TEF to rats
[4] = blood 6 h after oral TEF to rats
[5] = blood 12 h after oral TEF to rats
[6] = blood 24 h after oral TEF to rats
[7] = blood 48 h after oral TEF to rats
[8] = blood 72 h after oral TEF to rats
[9] = blood 1 h after oral TEF to rats
[10] = blood 0.5 h after oral TEF to rats
[11] = Albino Wistar, rat, plasma, po, 85 mg/kg
[12] = GA-H in rat plasma after oral TEF 85 mg/Kg
[13] = GA-H, rats, oral TEF 85 mg/Kg, non-compartmental analysis

For `CC(=O)O[C@@H]1C(=O)C2=C(C(=O)C[C@H]3C(C)(C)C(=O)CC[C@]23C)[C@]2(C)C(=O)C[C@H]([C@H](C)CC(=O)CC(C)C(=O)O)[C@@]12C` (some centres unmarked) [GA-F, ganoderic acid F], the “effect on growth and invasive behavior of breast cancer cells” value (“effect on growth and invasive behavior” for short) (breast cancer cells) is given as “suppress the growth and invasive behavior”.

For `CC(C)CCCCCCCCCCCC(=O)O` [13-methylmyristic acid], the “bioavailability (absorbed in systemic circulation) of TEF constituent” value (“bioavailability” for short) [1] was “bioavailable”, the “Metabolites Pattern in TEF and Blood (Abundance)” value (from here on “Metabolites Pattern”) [1, 3] was 23,412 and the “Metabolites Pattern” value [1, 4] was 25,473. The “Metabolites Pattern” value [1, 5] was 21,675, the “Metabolites Pattern” value [1, 6] was 16,734 and the “Metabolites Pattern” value [1, 7] was 9835. The “Metabolites Pattern” value [1, 8] was 5642.

With `CC(CC(=O)C[C@@H](C)[C@H]1CC(=O)[C@@]2(C)C3=C(C(=O)C[C@]12C)[C@@]1(C)CCC(=O)C(C)(C)[C@@H]1C[C@@H]3O)C(=O)O` (some centres unmarked) [Ganoderic acid D] the “Metabolites Pattern” value [1, 9] was 36,786, the “Metabolites Pattern” value [1, 3] was 37,654 and the “Metabolites Pattern” value [1, 4] was 27,689. For the same compound, the “Metabolites Pattern” value [1, 5] was 26,657 and the “Metabolites Pattern” value [1, 6] was 21,234.

In the case of `OC[C@H]1OC(c2c(O)cc3c(c2O)C[C@@H](O)[C@@H](c2ccc(O)c(O)c2)O3)[C@H](O)[C@@H](O)[C@@H]1O` (some centres unmarked) [Epicatechin-6-glucoside], the “bioavailability” value [1] is reported as “bioavailable”, the “Metabolites Pattern” value [1, 10] is reported as 19,876 and the “Metabolites Pattern” value [1, 9] is reported as 36,783. For the same compound, the “Metabolites Pattern” value [1, 3] was 25,056, the “Metabolites Pattern” value [1, 4] was 26,578 and the “Metabolites Pattern” value [1, 5] was 22,346. For the same compound, the “Metabolites Pattern” value [1, 6] was 21,324, the “Metabolites Pattern” value [1, 7] was 24,569 and the “Metabolites Pattern” value [1, 8] was 22,345.

In the case of `C[C@H](CC(=O)C[C@@H](C)[C@H]1C[C@H](O)[C@@]2(C)C3=C(C(=O)C[C@]12C)[C@@]1(C)CCC(=O)C(C)(C)[C@@H]1C[C@@H]3O)C(=O)O` [Ganoderic acid A], the “effect on growth and invasive behavior” value (breast cancer cells) is given as “suppress the growth and invasive behavior”, the “bioavailability” value [1] is given as “bioavailable” and the “Metabolites Pattern” value [1, 9] is given as 45,647. The “Metabolites Pattern” value [1, 3] was 37,652, the “Metabolites Pattern” value [1, 4] was 29,143 and the “Metabolites Pattern” value [1, 5] was 22,987. For the same compound, the “Metabolites Pattern” value [1, 6] was 21,548.

In the case of `CCCCC/C=C\C/C=C\CCCCCCCC(=O)O` [Linoleic acid], the “bioavailability” value [1] is reported as “bioavailable”, the “Metabolites Pattern” value [1, 3] is reported as 23,451 and the “Metabolites Pattern” value [1, 4] is reported as 21,543. For the same compound, the “Metabolites Pattern” value [1, 5] was 18,756, the “Metabolites Pattern” value [1, 6] was 12,112 and the “Metabolites Pattern” value [1, 7] was 8453. For the same compound, the “Metabolites Pattern” value [1, 8] was 5641.

In the case of `NC(=O)CC[C@H](N=C/C=C1/C=C(C(=O)O)N[C@H](C(=O)O)C1)C(=O)O` [Glutamine-betaxanthin], the “bioavailability” value [1] is reported as “absorbed in the systemic circulation”.

Compound `CC(=O)O[C@@H]1C(=O)C2=C(C(=O)C[C@H]3C(C)(C)[C@@H](O)CC[C@]23C)[C@]2(C)C(=O)C[C@H]([C@H](C)CC(=O)CC(C)C(=O)O)[C@@]12C` (some centres unmarked) [GA-H, ganoderic acid H] has an AUC(0-inf) [2, 11] of 9840 ± 157 ng·h/mL, an AUC(0-t) [2, 11] of 9800 ± 170 ng·h/mL and a half-life ([2]; Albino Wistar, rat, plasma, po, 85 mg/kg, read-out: half-life in blood (converted)) of 13.2 h. For the same compound, the Cmax ([2]; Albino Wistar, rat, plasma, po, 85 mg/kg, read-out: maximum plasma concentration (Cmax)) was 2510 ng/mL, the MRT ([2]; Albino Wistar, rat, plasma, po, 85 mg/kg, read-out: mean residence time in blood) was 5.42 h and the “relative exposure AUC0–∞/D” value [2, 12] was 1968.9 ± 32.5 ng·h/mL/mg. For the same compound, the “relative exposure Cmax/D” value [2, 12] was 501.9 ± 25.4 ng/mL/mg, the “time to peak plasma concentration (Tmax)” value [2, 12] was “approximately one” and the “time up to which a quantifiable amount was sustained in plasma” value ([2]; GA-H, rats, oral TEF) was “up to 12 h”. The “rate of elimination (Kel)” value ([2]; GA-H, rats, oral TEF 85 mg/Kg) was 0.05, the “clearance (CL)” value [2, 13] was 507.9 ± 25.6 mL/h and the “volume of distribution (Vd)” value [2, 13] was 9660.3 ± 111.5 mL. The detection in urine ([2]; rat urine collected at 4, 12 and 24 h after oral TEF, pooled) was “no GA-H was detected”, the “effect on growth and invasive behavior” value (breast cancer cells) was “suppress the growth and invasive behavior” and the “Metabolites Pattern” value [1, 10] was 35,876. For the same compound, the “Metabolites Pattern” value [1, 9] was 45,675, the “Metabolites Pattern” value [1, 3] was 54,675 and the “Metabolites Pattern” value [1, 4] was 32,456. For the same compound, the “Metabolites Pattern” value [1, 5] was 24,978.
